In patent US20090239887A1, “Method of resolution and antiviral activity of 1,3-oxathiolane nucleoside enantiomers” (Emory University, priority 1990, published 2009):
Read-outs that look alike come from different tables or passages of the source.

System: HIV-1 (strain LAV)
Test: microbe, parasite or virus in culture
Format: cell-based
Settings: for EC50: read-out: EC50
From the text: It is often desirable to screen a number of racemic mixtures of nucleosides as a preliminary step to determine which warrant further resolution into enantiomerically enriched components and evaluation of antiviral activity. The ability of nucleosides to inhibit HIV can be measured by various experimental techniques. The technique used herein, and described in detail below, measures the inhibition of viral replication in phytohemagglutinin (PHA) stimulated human peripheral blood mononuclear (PBM) cells infected with HIV-1 (strain LAV). The amount of virus produced is determined by measuring the virus-coded reverse transcriptase enzyme. The amount of enzyme produced is proportional to the amount of virus produced.
A. Three-day-old phytohemagglutinin-stimulated PBM cells (10^6 cells/ml) from hepatitis B and HIV-1 seronegative healthy donors were infected with HIV-1 (strain LAV) at a concentration of about 100 times the 50% tissue culture infectious dose (TICD 50) per ml and cultured in the presence and absence of various concentrations of antiviral compounds.
B. Approximately one hour after infection, the medium, with the compound to be tested (2 times the final concentration in medium) or without compound, was added to the flasks (5 ml; final volume 10 ml). AZT was used as a positive control.
C. The cells were exposed to the virus (about 2×10^5 dpm/ml, as determined by reverse transcriptase assay) and then placed in a CO2 incubator. HIV-1 (strain LAV) was obtained from the Center for Disease Control, Atlanta, Ga. The methods used for culturing the PBM cells, harvesting the virus and determining the reverse transcriptase activity were those described by McDougal et al. (J. Immun. Meth. 76, 171-183, 1985) and Spira et al. (J. Clin. Meth. 25, 97-99, 1987), except that fungizone was not included in the medium (see Schinazi, et al., Antimicrob. Agents Chemother. 32, 1784-1787 (1988); Id., 34:1061-1067 (1990)).
D. On day 6, the cells and supernatant were transferred to a 15 ml tube and centrifuged at about 900 g for 10 minutes. Five ml of supernatant were removed and the virus was concentrated by centrifugation at 40,000 rpm for 30 minutes (Beckman 70.1 Ti rotor). The solubilized virus pellet was processed for determination of the levels of reverse transcriptase. Results are expressed in dpm/ml of sampled supernatant. Virus from smaller volumes of supernatant (1 ml) can also be concentrated by centrifugation prior to solubilization and determination of reverse transcriptase levels.

[1] = Human immunodeficiency virus 1, PBMC, comparison nucleosides, source not stated
[2] = human PBM cells infected with HIV-1, enantiomers isolated by chiral HPLC (Example 3)

[N-]=[N+]=N[C@H]1C[C@H](n2ccc(=O)[nH]c2=O)O[C@@H]1CO [AZDU, 3′-azido-2′,3′-dideoxyuridine, reference compound] showed an EC50 [1] of 0.18 to 0.46 µM.

In the case of Nc1ccn(C2CSC(CO)O2)c(=O)n1 (stereo not drawn) [BCH-189 (+), 2-hydroxymethyl-5-(cytosin-1-yl)-1,3-oxathiolane], the DPM/ml (0.00085 μM) is reported as 71,795 DPM/ml, the DPM/ml (0.00425 μM) is reported as 99,710 DPM/ml and the DPM/ml (0.0085 μM) is reported as 68,355 DPM/ml. The DPM/ml (0.0415 μM) was 82,845 DPM/ml, the DPM/ml (0.0825 μM) was 65,100 DPM/ml and the DPM/ml (0.412 μM) was 43,260 DPM/ml. For the same compound, the inhibition at 0.00085 µM (Human immunodeficiency virus 1, PBMC, 0.00085 μM, read-out: % Inhibition (Corrected)) was 28.7%, the inhibition at 0.00425 µM (Human immunodeficiency virus 1, PBMC, 0.00425 μM, read-out: % Inhibition (Corrected)) was -2.1% and the inhibition at 0.0085 µM (Human immunodeficiency virus 1, PBMC, 0.0085 μM, read-out: % Inhibition (Corrected)) was 32.5%. The inhibition at 0.0415 µM (Human immunodeficiency virus 1, PBMC, 0.0415 μM, read-out: % Inhibition (Corrected)) was 16.5%, the inhibition at 0.0825 µM (Human immunodeficiency virus 1, PBMC, 0.0825 μM, read-out: % Inhibition (Corrected)) was 36.1% and the inhibition at 0.412 µM (Human immunodeficiency virus 1, PBMC, 0.412 μM, read-out: % Inhibition (Corrected)) was 60.3%. It also gave an EC50 [2] of 0.23 µM.

For Nc1ccn(C2CSC(CO)O2)c(=O)n1 (stereo not drawn) [BCH-189 (−), 2-hydroxymethyl-5-(cytosin-1-yl)-1,3-oxathiolane], the DPM/ml (0.001 μM) was 76,400 DPM/ml, the DPM/ml (0.005 μM) was 66,875 DPM/ml and the DPM/ml (0.01 μM) was 54,170 DPM/ml. The DPM/ml (0.05 μM) was 57,615 DPM/ml, the DPM/ml (0.1 μM) was 34,705 DPM/ml and the DPM/ml (0.5 μM) was 15,250 DPM/ml. It also gave an inhibition at 0.001 µM (Human immunodeficiency virus 1, PBMC, 0.001 μM, read-out: % Inhibition (Corrected)) of 23.6%, an inhibition at 0.005 µM (Human immunodeficiency virus 1, PBMC, 0.005 μM, read-out: % Inhibition (Corrected)) of 34.2% and an inhibition at 0.01 µM (Human immunodeficiency virus 1, PBMC, 0.01 μM, read-out: % Inhibition (Corrected)) of 48.2%. For the same compound, the inhibition at 0.05 µM (Human immunodeficiency virus 1, PBMC, 0.05 μM, read-out: % Inhibition (Corrected)) was 44.4%, the inhibition at 0.1 µM (Human immunodeficiency virus 1, PBMC, 0.1 μM, read-out: % Inhibition (Corrected)) was 69.7% and the inhibition at 0.5 µM (Human immunodeficiency virus 1, PBMC, 0.5 μM, read-out: % Inhibition (Corrected)) was 91.2%. The EC50 [2] was 0.016 µM.

In the case of Nc1ncnc2c1ncn2[C@H]1CC[C@@H](CO)O1 [DDA, 2′,3′-dideoxyadenosine, reference compound], the EC50 [1] is reported as 0.91 µM.

In the case of Nc1ccn([C@H]2CC[C@@H](CO)O2)c(=O)n1 [DDC, dideoxycytidine, reference compound], the EC50 [1] is reported as 0.011 µM.

With Cc1cn([C@H]2CC[C@@H](CO)O2)c(=O)[nH]c1=O [DDT, 3′-dideoxythymidine, reference compound] the EC50 (comparison nucleosides, source not stated) was 0.17 µM.
